From US20240376099A1, “COMPOUNDS AND COMPOSITIONS AS INHIBITORS OF ENDOSOMAL TOLL-LIKE RECEPTORS” (Novartis AG, priority 2016, published 2024)

What follows are compounds tested against T1, TLR9 (Homo sapiens, UniProt Q9NR96) (assay: huPBMC TLR9 Antagonist IFNα Assay). Conditions: human PBMCs stimulated with ODN2216 0.3 μM, 14-16 hrs; IFNα2b AlphaLISA read-out.
T1 construct: Fresh blood was collected from normal human donors; endogenous in cells; host or cells: human PBMCs from fresh donor blood
T1 sequence (Q9NR96 26-1032): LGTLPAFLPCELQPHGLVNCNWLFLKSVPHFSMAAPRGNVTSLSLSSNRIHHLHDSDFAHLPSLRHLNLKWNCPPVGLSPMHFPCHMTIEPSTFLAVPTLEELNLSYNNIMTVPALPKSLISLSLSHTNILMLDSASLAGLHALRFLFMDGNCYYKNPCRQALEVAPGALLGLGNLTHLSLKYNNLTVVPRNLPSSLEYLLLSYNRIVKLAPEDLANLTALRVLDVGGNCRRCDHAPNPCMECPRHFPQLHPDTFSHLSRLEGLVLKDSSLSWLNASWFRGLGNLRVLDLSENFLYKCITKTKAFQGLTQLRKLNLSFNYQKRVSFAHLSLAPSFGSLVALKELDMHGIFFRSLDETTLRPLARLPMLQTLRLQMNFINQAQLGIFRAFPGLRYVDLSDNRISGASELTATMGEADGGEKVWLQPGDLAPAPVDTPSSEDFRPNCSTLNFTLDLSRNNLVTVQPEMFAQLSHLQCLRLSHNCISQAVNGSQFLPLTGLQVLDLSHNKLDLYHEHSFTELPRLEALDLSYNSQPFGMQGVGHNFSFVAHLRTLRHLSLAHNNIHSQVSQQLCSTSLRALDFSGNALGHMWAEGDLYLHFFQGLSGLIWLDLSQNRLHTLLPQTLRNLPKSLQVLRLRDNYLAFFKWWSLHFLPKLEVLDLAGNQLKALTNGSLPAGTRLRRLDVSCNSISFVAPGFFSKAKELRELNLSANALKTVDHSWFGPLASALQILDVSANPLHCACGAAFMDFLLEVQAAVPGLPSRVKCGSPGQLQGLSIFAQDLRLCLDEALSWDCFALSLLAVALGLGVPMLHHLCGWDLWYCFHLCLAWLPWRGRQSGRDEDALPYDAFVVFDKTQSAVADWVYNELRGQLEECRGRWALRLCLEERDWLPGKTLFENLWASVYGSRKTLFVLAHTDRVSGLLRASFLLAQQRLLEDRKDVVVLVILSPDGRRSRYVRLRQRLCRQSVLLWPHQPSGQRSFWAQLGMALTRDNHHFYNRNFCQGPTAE
Assay type: cell-based
How it was run: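 Human PBMCs from fresh donor blood (150,000 cells/well) stimulated 14–16 h at 37 °C with DOTAP-complexed ssRNA40 (final 1 μg/ml for TLR8, 10 μg/mL for TLR7) or ODN2216 (final 0.3 μM, TLR9), 0.25% DMSO, ten-point 1/3 compound dilutions. Supernatant IL-6 read by HTRF (TLR8); IFNα by IFNα2b AlphaLISA (TLR7/TLR9).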
`Cc1cc(N2CCc3c(c(C)nn3CC34CCC(N5CC[C@H](O)C5)(CC3)CC4)C2)c2cnn(C)c2n1` [compound 75, (S)-1-(4-((5-(1,6-dimethyl-1H-pyrazolo[3,4-b]pyridin-4-yl)-3-methyl-4,5,6,7-tetrahydro-1H-pyrazolo[4,3-c]pyridin-1-yl)methyl)bicyclo[2.2.2]octan-1-yl)pyrrolidin-3-ol] showed an IC50 of 963 nM.
Compound `Cc1cc(N2CCc3c(c(C)nn3CC34CCC(N(C)C5CCC5)(CC3)CC4)C2)c2cnn(C)c2n1` [compound 79, N-cyclobutyl-4-((5-(1,6-dimethyl-1H-pyrazolo[3,4-b]pyridin-4-yl)-3-methyl-4,5,6,7-tetrahydro-1H-pyrazolo[4,3-c]pyridin-1-yl)methyl)-N-methylbicyclo[2.2.2]octan-1-amine] has an IC50 of 64 nM.
Work on `Cc1cc(N2CCc3c(c(C)nn3CC34CCC(N5C[C@H](O)[C@@H](O)C5)(CC3)CC4)C2)c2cnn(C)c2n1` [compound 80, (3S,4S)-1-(4-((5-(1,6-dimethyl-1H-pyrazolo[3,4-b]pyridin-4-yl)-3-methyl-4,5,6,7-tetrahydro-1H-pyrazolo[4,3-c]pyridin-1-yl)methyl)bicyclo[2.2.2]octan-1-yl)pyrrolidine-3,4-diol] yielded an IC50 of 249 nM.
With `Cc1nn(CC23CCC(N4CCCC4)(CC2)CC3)c2c1CN(c1ccnc(-c3ccccc3)c1)CC2` [compound 85, 3-methyl-5-(2-phenylpyridin-4-yl)-1-((4-(pyrrolidin-1-yl)bicyclo[2.2.2]octan-1-yl)methyl)-4,5,6,7-tetrahydro-1H-pyrazolo[4,3-c]pyridine] the IC50 was 569 nM.
In the case of `Cc1cc(N2CCc3c(c(C)nn3CC34CCC(N5CCCC5)(CC3)CC4)C2)c2ccncc2n1` [compound 86, 2-methyl-4-(3-methyl-1-((4-(pyrrolidin-1-yl)bicyclo[2.2.2]octan-1-yl)methyl)-6,7-dihydro-1H-pyrazolo[4,3-c]pyridin-5(4H)-yl)-1,7-naphthyridine], the IC50 is reported as 2740 nM.
In the case of `Cc1cc(N2CCc3c(c(C)nn3CCC34CCC(N)(CC3)CC4)C2)c2cnn(C)c2n1` [compound 91, 4-(2-(5-(1,6-dimethyl-1H-pyrazolo[3,4-b]pyridin-4-yl)-3-methyl-4,5,6,7-tetrahydro-1H-pyrazolo[4,3-c]pyridin-1-yl)ethyl)bicyclo[2.2.2]octan-1-amine], the IC50 is reported as 215 nM.
`Cc1cc(N2CCc3c(c(C)nn3CC34CCC(N)(CC3)CC4)C2)c2ccnc(C)c2n1` [compound 92, 4-((5-(2,8-dimethyl-1,7-naphthyridin-4-yl)-3-methyl-4,5,6,7-tetrahydro-1H-pyrazolo[4,3-c]pyridin-1-yl)methyl)bicyclo[2.2.2]octan-1-amine] showed an IC50 of 94 nM.
